Measurements: patent publication US20250228887A1, “OPHTHALMIC COMPOSITION” (ROHTO PHARMACEUTICAL CO., LTD., priority 2021, published 2025)

Assays:
[1] = system: human corneal epithelial cell line HCE-T cells; experiment: Cell dry test (first invention, Test Example 13); type: cell-based; details: 8, 13, 14 vs test solution 4; 11, 12 vs test solution 5; 1% vs 0.5%
Method: Ophthalmic compositions were prepared according to a general method using the formulations shown in Table 12 and used as test solutions. The units of the components in Table 12 are w/v % unless specified in the table. 100 μL of human corneal epithelial cell line HCE-T cells at a concentration of 1×10^5 cells/mL was seeded in each well in a 96-well plate (commercially available from Corning Inc.), and cultured in a CO2 incubator set at 37° C., a humidity of 90%, and a concentration of 5% CO2 until the cells became confluent. […] After each ophthalmic composition was removed by suction from each well, drought stress was applied by leaving it in a clean bench for 20 minutes, and the number of viable cells was then evaluated. In order to evaluate the number of viable cells, 10 μL of a cell number measurement reagent (Cell counting kit-8, commercially available from Dojindo Molecular Technologies, Inc.) per 100 μL of the medium was put into each well, and culturing was performed under conditions of 37° C., 5% CO2, and a humidity of 90% for 2 to 3 hours, and measurement was then performed using an absorbance meter (commercially available from MOLECULAR DEVICES) at 450 nm. Here, the higher the value of the absorbance, the greater the number of viable cells.

[2] = system: rabbits; experiment: Drought stress test using rabbits (first invention, Test Example 1); type: in vivo, Japanese white rabbits; details: 0.5 w/v % or 3 w/v % in saline, 100 μL per eye, eyelids open 3 hours; compared with Mw about 25,000; **p<0.01 Tukey; FIG. 1
Method: Each test substance was prepared by dissolving sodium chondroitin sulfate having a weight-average-molecular weight of about 25,000 (commercially available from Maruha Nichiro Corporation; over-the-counter sodium chondroitin sulfate) or sodium chondroitin sulfate having a weight-average-molecular weight of about 56,000 (commercially available from Seikagaku Corporation; Grade N-K) so that the content was 0.5 w/v % or 3 w/v %, respectively, in a saline (commercially available from Otsuka Pharmaceutical Factory, Inc.).
According to the method used by Nagano et al. (New Ophthalmology, 13(2), 267-270, 1996), rabbits divided into 5 groups (n=5) (Japanese white rabbits (commercially available from Kitayama Labes Co. Ltd.)) were subjected to general anesthesia, and then gloves with ring-shaped fingers were put on their left and right eyeballs and the eyelids were forcibly opened. […] After the cornea was removed from the ocular surface, the methylene blue dye was extracted, and the absorbance was measured using a microplate reader Multiskan GO (commercially available from Thermo Fisher Scientific) at 660 nm. Here, eye dryness caused corneal damage, and increased the amount of dye adhered to the cornea surface, and thus it could be evaluated that the higher the absorbance value, the drier the eyes were.

In the case of sodium chondroitin sulfate, the “number of viable cells after drought stress, comparison in words” value [1] is reported as “the number of viable cells significantly increased at 1%” and the “absorbance at 660 nm of methylene blue dye extracted from the cornea (corneal damage caused by eye dryness), in words” value [2] is reported as “significantly lower absorbance”.
